In patent US8658350B2 (priority 2008, dated 2014):

tested on: CD8+ T cells; format: cell-based, human

Compound	# SFU	#SFU/250,000 CD8+ T-cells
CSCC[C@H](NC(=O)[C@H](CCC(=O)O)NC(=O)[C@H](C)N)C(=O)N[C@@H](CCCCN)C(=O)N[C@H](C(=O)N[C@@H](CC(=O)O)C(=O)N[C@@H](C)C(=O)N[C@@H](C)C(=O)N[C@H](C(=O)N[C@@H](CC(C)C)C(=O)N[C@@H](C)C(=O)O)[C@@H](C)O)[C@@H](C)O	1993	
CC[C@H](C)[C@H](NC(=O)[C@@H](N)CC(N)=O)C(=O)N[C@@H](CCCNC(=N)N)C(=O)N[C@@H](CCC(N)=O)C(=O)N[C@@H](C)C(=O)NCC(=O)N[C@H](C(=O)N[C@@H](CCC(N)=O)C(=O)N[C@@H](Cc1ccc(O)cc1)C(=O)O)C(C)C	1715	
CSCC[C@H](NC(=O)[C@H](CCC(=O)O)NC(=O)[C@H](C)N)C(=O)N[C@@H](CCCCN)C(=O)N[C@H](C(=O)N[C@@H](CC(=O)O)C(=O)N[C@@H](C)C(=O)N[C@@H](C)C(=O)O)[C@@H](C)O	2458	
CC[C@H](C)[C@H](NC(=O)[C@@H](NC(=O)[C@H](C)N)C(C)C)C(=O)N[C@@H](CC(N)=O)C(=O)N[C@H](C(=O)N[C@H](C(=O)N[C@@H](CS)C(=O)N[C@@H](CC(N)=O)C(=O)N[C@@H](Cc1ccc(O)cc1)C(=O)NCC(=O)N[C@@H](CCC(N)=O)C(=O)O)[C@@H](C)O)[C@@H](C)O	24	
CC[C@H](C)[C@H](NC(=O)[C@H](Cc1c[nH]cn1)NC(=O)[C@H](C)NC(=O)[C@H](CC(=O)O)NC(=O)[C@H](CC(C)C)NC(=O)[C@@H](N)CC(C)C)C(=O)N1CCC[C@H]1C(=O)N[C@@H](CCC(N)=O)C(=O)N[C@@H](CC(C)C)C(=O)O	<10	
CC(C)[C@H](NC(=O)[C@H](Cc1ccccc1)NC(=O)[C@H](CCCNC(=N)N)NC(=O)[C@H](C)NC(=O)[C@H](Cc1c[nH]cn1)NC(=O)[C@H](C)NC(=O)[C@H](C)N)C(=O)N[C@@H](C)C(=O)N[C@@H](C)C(=O)O	88	
RADEEQQQAL	120	
CSCC[C@H](NC(=O)[C@@H](N)CCC(=O)O)C(=O)N[C@@H](CCCCN)C(=O)N[C@H](C(=O)N[C@@H](CC(=O)O)C(=O)N[C@@H](C)C(=O)N[C@@H](C)C(=O)N[C@H](C(=O)N[C@@H](CC(C)C)C(=O)O)[C@@H](C)O)[C@@H](C)O	387	
ELPQWLSANR	<10	
CC(C)[C@H](NC(=O)[C@H](C)NC(=O)[C@H](C)NC(=O)[C@H](CCC(N)=O)NC(=O)[C@H](C)NC(=O)[C@H](C)NC(=O)[C@@H](N)[C@@H](C)O)C(=O)N[C@H](C(=O)N[C@@H](CCCNC(=N)N)C(=O)N[C@@H](Cc1ccccc1)C(=O)O)C(C)C	258	
QTVEDEARRMW		84
CC(C)C[C@H](NC(=O)[C@H](Cc1ccc(O)cc1)NC(=O)[C@H](CO)NC(=O)[C@H](CCC(N)=O)NC(=O)[C@H](C)NC(=O)[C@@H](NC(=O)[C@@H]1CCCN1C(=O)[C@H](CO)NC(=O)[C@H](C)N)C(C)C)C(=O)O	210	
